Data as given in patent US20260083704A1, “LXR MODULATORS WITH BICYCLIC CORE MOIETY FOR TREATING DYSLIPIDEMIAS” (OrsoBio, Inc., priority 2022, published 2026).
“Also recorded” adds a separate entry of the source. Where two headings read alike, the source gives them in different places.

Assays:
[1] = system: humanized liver chimeric PXB mice; test: Humanized liver chimeric PXB mouse model; assay type: in vivo; details: 1 mg/kg once daily oral, 8 days
Method: Data are shown as mean±SD. N=4-5 animals per group. *p≤0.05, **p≤0.01, ***p≤0.001, ****p≤0.0001 Mann-Whitney test.
Since features of cholesterol metabolism differ between rodents and humans, the humanized liver chimeric PXB® mouse model was utilized to further explore the effects of Compound 21/3 on lipid metabolism in a more relevant nonclinical model (Tateno, Yoshizane et al. 2004). Briefly, PXB mice were treated with either vehicle or Compound 21/3 (1 mg/kg once daily by oral gavage) for 8 days. The pharmacokinetics (PK) data from this study are presented herein. […] Specifically, Compound 21/3 reduced the expression of the cholesterol synthesis gene, HMGCR, as well as in genes that reduce the hepatic uptake of LDL-C (PCSK9, IDOL) and conversion of cholesterol to bile acids (CYP7A1). As expected, marked reductions in ANGPTL3 and DNL-associated genes (SREBP1C, ACACA, FASN, SCD1) were also observed.

[2] = Phase 1 study, MAD cohorts: plasma pharmacokinetics; assay type: in vivo, human; details: healthy subjects; for AUC / Cmax / Tmax / half-life: both sexes, human, plasma, oral
Method: A double-blind, placebo-controlled, single- and multiple-ascending dose FIH Phase 1 study to evaluate the safety, tolerability, PK, and PD of Compound 21/3 in healthy adult subjects was performed. A total of up to 150 subjects were enrolled, including 100 subjects in Parts A and B, and up to 50 subjects in adaptive cohorts in Part C. Within each cohort, 10 subjects were randomized, including 8 subjects randomized to Compound 21/3 and 2 subjects to PTM (placebo-to-match). In single-dose cohorts in Parts A and in any Part C cohort evaluating a higher total daily dose than previously evaluated, safety and tolerability data collected through Day 2 from two sentinel subjects, one randomized to Compound 21/3 and one to PTM, were evaluated prior to dosing of the remaining subjects in each cohort.
Intensive PK sampling over 72 h postdose on Day 1 (SAD and MAD) and Day 14 (MAD) was performed. Compound 21/3 plasma concentrations were determined using validated liquid chromatography-tandem mass spectrometry assay. PK parameters were estimated via noncompartmental methods using Pheonix® WinNonlin® 6.2.1 and 8.3.4 (Certara, LP, Princeton, NJ).
Part B evaluated the safety, tolerability, PK, and PD of multiple-ascending doses of oral Compound 21/3 or placebo under fed conditions. Part B will proceed in up to 5 dose-escalation cohorts and will be governed by a review of safety, tolerability, and any available and relevant PK and/or PD data, and study-specific stopping criteria.

[3] = system: LXR target genes in the liver; test: Liver LXR target gene expression 24 hours after a single oral dose in mice; assay type: in vivo; details: 24 hours post-dose
Method: Data are shown as mean±SD. N=3-8 wells per treatment.
The efficacy of Compound 21/3 and Compound pre-6/3 were evaluated in diet-induced obese (DIO) mouse and rat models.

ABCA1/ABCG1 in PBMCs = test: Phase 1 study, MAD cohorts: expression of ABCA1/ABCG1 in PBMCs (peripheral RCT); assay type: in vivo, human; details: healthy subjects, predose and 4 h postdose on Day 14
Method: Lipid parameters, including apolipoprotein B (apoB), were evaluated by NMR LipoProfile® (Labcorp, Burlington, NC. Plasma ApoC3 and ANGPTL3 were evaluated by ELISA (360biolabs, Melbourne, Australia). Peripheral RCT (reverse cholesterol transport) were evaluated by assessing changes in expression of ABCA1/ABCG1 in PBMCs, predose and 4 hours postdose on Days 1 and 14 (Gnomix, Bedford Park, Australia).
In FIG. 14A to 14C, ApoC3 and ANGPTL3 measured 12 h postdose. RCT assessed predose and 4 h postdose on Day 14.

DIO mice = test: Two-step hyperinsulinemic-euglycemic clamp in DIO mice; assay type: in vivo; details: 5 mg/kg once daily oral
Excerpt: Data are shown as mean±SD. N=5-11 animals per group. *p≤0.05, **p≤0.01, ***p≤0.001, ****p≤0.0001 vs. vehicle, unless otherwise indicated; ^#p≤0.05 pioglitazone vs. vehicle. Repeated measures Two-way ANOVA with Dunnett's multiple comparisons test (FIG. 7A, FIG. 7D), Two-way ANOVA with Dunnett's multiple comparisons test (FIG. 7B, FIG. 7C). EDL=extensor digitorum longus, GIR=glucose infusion rate, HGP=hepatic glucose production, iWAT=inguinal white adipose tissue.
The effects of chronic dosing of Compound 21/3 and Compound pre-6/3 were evaluated in DIO mice and HFD-fed ZDF rats, respectively. Briefly, C57BL/6 mice were fed a HFD for 16 weeks prior to treatment with Compound pre-6/3 (5 mg/kg) or pioglitazone (30 mg/kg; positive control) once daily by oral gavage. After four weeks of treatment, a two-step hyperinsulinemic-euglycemic clamp along with the infusion of radiotracers to monitor glucose disposal and hepatic glucose production was performed. […] These changes were associated with a reduction in hepatic glucose production in the Compound pre-6/3-treated mice, more evident during the 8 mU/kg/min insulin infusion (FIG. 7B).

Structure (SMILES): N#Cc1cccc(C#N)c1-c1c(-c2cccc(-c3ccc(C(=O)NCC(=O)O)cc3Cl)c2)n(S(=O)(=O)c2ccc(C(F)F)cc2)c2ccc(F)cc12 [Compound 21/3]
- hepatic TG and TC content [1]: trended to reduce
- hepatic expression of genes involved in the metabolism of cholesterol and TG ([1]; relative to vehicle): significantly reduced
- AUC ([2]; 2 mg, MAD Day 14, 2 mg, fed, mean): 2.7 ng·h/mL
- Cmax ([2]; 2 mg, MAD Day 14, 2 mg, fed, mean, read-out: Cmax): 0.95 ng/mL
- Tmax ([2]; 2 mg, MAD Day 14, 2 mg, fed, median): 4 h
- half-life ([2]; 2 mg, MAD Day 14, 2 mg, fed, median, read-out: t1/2 (converted)): 1.43 h
- AUC ([2]; 6 mg, MAD Day 14, 6 mg (fasted), mean): 19 ng·h/mL
- Cmax ([2]; 6 mg, MAD Day 14, 6 mg (fasted), mean, read-out: Cmax): 6.37 ng/mL
- Tmax ([2]; 6 mg, MAD Day 14, 6 mg (fasted), median): 2 h
- half-life ([2]; 6 mg, MAD Day 14, 6 mg (fasted), median, read-out: t1/2 (converted)): 1.46 h
- AUC ([2]; 6 mg, MAD Day 14, 6 mg, fed, mean): 6.05 ng·h/mL
- Cmax ([2]; 6 mg, MAD Day 14, 6 mg, fed, mean, read-out: Cmax): 2.16 ng/mL
- Tmax ([2]; 6 mg, MAD Day 14, 6 mg, fed, median): 3.5 h
- half-life ([2]; 6 mg, MAD Day 14, 6 mg, fed, median, read-out: t1/2 (converted)): 1.51 h
- AUC ([2]; 12 mg, MAD Day 14, 12 mg, fed, mean): 14.6 ng·h/mL
- Cmax ([2]; 12 mg, MAD Day 14, 12 mg, fed, mean, read-out: Cmax): 4.85 ng/mL
- Tmax ([2]; 12 mg, MAD Day 14, 12 mg, fed, median): 3.5 h
- half-life ([2]; 12 mg, MAD Day 14, 12 mg, fed, median, read-out: t1/2 (converted)): 1.74 h
- half-life ([2]; MAD, read-out: steady-state t1/2): 1.4 to 2.6 h
- Tmax ([2]; Phase 1 summary (SAD and MAD)): 2 to 4 h
- Cmax ([2]; Phase 1 summary (SAD and MAD), read-out: maximal plasma concentrations (Cmax)): < 7 ng/mL
- steady-state t1/2 ([2]; MAD): 1.5 to 2.5 h
- AUC and Cmax lower on Day 14 vs Day 1 ([2]; MAD, fed dosing): 25-50%
- dose proportionality of AUC and Cmax ([2]; MAD, fed dosing): increased less than dose proportionally
- target engagement in the liver (expression of LXR target genes) [3]: sustained target engagement
- peripheral RCT: expression of LXR target genes in PBMCs incl. ABCA1/ABCG1 (ABCA1/ABCG1 in PBMCs): does not impact; also recorded: did not impact

Structure (SMILES): N#Cc1cccc(C#N)c1-c1c(-c2cccc(-c3ccc(C(=O)O)cc3Cl)c2)n(S(=O)(=O)c2ccc(C(F)F)cc2)c2ccc(F)cc12 [pre-6/3]
- glucose utilization by muscle versus vehicle (DIO mice; end of the clamp): significantly higher
- glucose infusion rate versus vehicle (DIO mice; four weeks, insulin infusion 8 and 18 mU/kg/min): significantly higher
- hepatic glucose production (DIO mice; four weeks, more evident at 8 mU/kg/min): reduction
